Series [1] can be described thus: Acute toxicity (LD50) by mice. Conditions: mouse, in vivo, ip.
For series [2], the system named is murine tumor cell line L 929. Put plainly: Cytotoxic activity against L 929 (growth observed with inverted microscope, 4 days).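 On growth: + means growth and ± means marked inhibition and - means cell death.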 Type of series: cell-based. Conditions: for Growth: 4 days. The method, then: The B16 subline of high pulmonary metastatic potential and murine tumor cell line L 929 were cultured in DME medium supplemented with 10% bovine fetal serum at 37° C. in the presence of 5% CO2.
The B16 subline of high pulmanary metastatic potential and murine tumor cell line L 929 were cultured in DME medium supplemented with 10% bovine fetal serum at 37° C. in the presence of 5% CO2.

Series [3] has as its system B16 subline of high pulmonary metastatic potential. Conditions: Table 2, B16 subline, 3 days. The method, then:
(§1) The B16 subline of high pulmonary metastatic potential and murine tumor cell line L 929 were cultured in DME medium supplemented with 10% bovine fetal serum at 37° C. in the presence of 5% CO2. Then, cells were detached from the Petri dish with trypsin-EDTA solution. The B16 subline and L 929 were suspended in the medium described above in 1×10^4 cells/ml and 1×10^3 cells/ml, respectively. Each suspension, 150 μl, was added to 50 μl of N-(3-phenylpropyl)-1-deoxynojirimycin solution or Adriamycin (control) solution. Incubation was performed for 3 days for the B16 subline and for 4 days for L 929 strain.
as §1, with “of N-(4-phenoxy-trans-2-butenyl)-1-deoxynojirimycin” for “of N-(3-phenylpropyl)-1-deoxynojirimycin”, “days in” for “days for”, “L 929.” for “L 929 strain.”
The B16 subline of high pulmonary metastatic potential and murine tumor cell line L 929 were cultured in DME medium supplemented with 10% bovine fetal serum at 37° C. in the presence of 5% CO2. Then, cells were detached from the Petri dish with trypsin-EDTA solution. The B16 subline and L 929 were suspended in the medium described above in 1×10^4 cells/ml and 1×10^3 cells/ml, respectively. Each suspension, 150 μl, was added to 50 μl of D-glucaro-δ-lactam calcium salt solution or Adriamycin (control) solutions. Incubation was performed for 3 days in the B16 subline and for 4 days in L 929.
The B16 subline of high pulmonary metastatic potential and murine tumor cell line L 929 were cultured in DME medium supplemented with 10% bovine fetal serum at 37° C. in the presence of 5% CO2. Then, cells were detached from the Petri dish with trypsin-EDTA solution. The B16 subline and L 929 were suspended in the medium described above in 1×10^4 cells/ml and 1×10^3 cells/ml, respectively. Each suspension, 150 μl, was added to 50 μl of 2,6-di-O-(1-(p-chlorobenzoyl)-5-methoxy-2-methylindole-3-acetyl)-D-gluco-δ-lactam solution or and Adriamycin (control) solutions. Incubation was performed for 3 days in the B16 subline and for 4 days in L 929.
The B16 subline of high pulmanary metastatic potential and murine tumor cell line L 929 were cultured in DME medium supplemented with 10% bovine fetal serum at 37° C. in the presence of 5% CO2. Then, cells were detached from the Petri dish with trypsin-EDTA solution. The B16 subline and L 929 were suspended in the medium described above in 1×10^4 cells/ml and 1×10^3 cells/ml, respectively. Each suspension, 150 μl, was added to 50 μl of 6-O-triphenylmethyl-D-gluco-δ-lactam solution or Adriamycin (control) solutions. Incubation was performed for 3 days in the B16 sibline and for 4 days in L 929.
The B16 subline of high pulmonary metastatic potential was inoculated into DME medium supplemented with 10% bovine fetal serum and 30 μg/ml of 1-deoxynojirimycin was added thereto followed by incubation at 37° C. for 3 days in the presence of 5% CO2. […] Next, the cells were detached from the Petri dish with trypsin-EDTA solution. The cells were suspended in PBS- in 1×10^6 cells/ml as viable cells. This suspension, 0.1 ml, was intravenously injected in the tail vein of the mouse BDF1 (8 week age, male; 1 group, 3 mice). After feeding for 14 days, the mouse was sacrificed to excise the lungs. The number of colonies of the B16 subline on the surface of and in the lungs was counted.

Read-outs that look alike come from different tables or passages of the source. Bounds are passed on as bounds.

Broadly, the LD50 is the dose at which mortality reaches 50%. Low values mean a more toxic substance, high ones a less toxic substance. `OC[C@@H]1[C@@H](O)[C@H](O)[C@@H](O)CN1CCCc1ccccc1` [N-(3-Phenylpropyl)-1-deoxynojirimycin, N-(3-phenylpropyl)-1-deoxynojirimycin] came in with an LD50 in series [1] greater than 500 mg/kg. In addition, the “Cytotoxicity (in words)” value in series [2] (L 929, even at a concentration as high as 100 μg/ml) is “did not show marked cytotoxicity”. Also, the Growth result in series [2] (Table 2, L 929, 0.5 μg/ml) is on record as “+”; in series [2] (Table 2, L 929, 5 μg/ml), “+”; in series [2] (Table 2, L 929, 50 μg/ml), “+”; in series [2] (Table 2, L 929, 100 μg/ml), “+”; in series [3] (30 μg/ml) it was “+”; in series [3] (100 μg/ml), “+”. In addition, in series [3] (300 μg/ml), the Growth result is recorded as “±”.

Source of the values: patent US4985445A, “Cancer cell metastasis inhibitors and novel compounds” (Meiji Seika Kaisha, Ltd., priority 1988, dated 1991).
